{"source": "patent US20100179188A1", "about": "“NITROXIDE RADICAL AS TREATMENT FOR NEURODEGENERATION” (Office of Technology Transfer, NIH, priority 2007, published 2010)", "key": {"IRP2−/− mice [1]": {"system": "IRP2−/− mice", "assay": "Hang-test of IRP2−/− mice on Tempo1-supplemented diet", "format": "in vivo", "description": "Mice: IRP2−/− mice were generated, propagated by breeding and genotyped as described in LaVaute et al., Nature Genetics, 27, 209-214 (2001). Mice used in this study have a 129S4/SvJae X C57B1/6 mixed background (specific proportions of each strain are not known). In experiments with mice of same genotype but on different diets siblings were used to minimize phenotypic variation due to differences in genetic background. Mice of different genotypes and on different diets were age and sex matched. All protocols were approved by the National Institute of Child Health and Human Development Animal Care and Use Committee, and met US National Institutes of Health guidelines for the humane care of animals. […]\nHang-test: In the hang-test, mice were allowed to grip a wire mesh that was then inverted. The length of time that a mouse could hang on to an inverted wire mesh before falling (up to a maximum of 60 seconds) was measured and recorded.\nA stable nitroxide radical, Tempo1, was administered as a dietary supplement to knockout mice (IRP2−/−), and neurodegeneration was tested using the “hang test,” by which mice were allowed to grasp a wire mesh screen in an inverted position and the length of time that the mice could remain grasping the screen was measured (up to a maximum of 60 seconds). The hang test quantitatively assesses the progression of neurodegeneration in mice. […]"}, "IRP2−/− mice [2]": {"system": "IRP2−/− mice", "assay": "Observation of other signs of neurodegeneration in IRP2−/− mice", "format": "in vivo", "settings": "IRP2−/− mice supplemented with Tempo1", "description": "Background on Experimental Model: In the following examples, IRP2−/− mice are used to model neurodegerative disease. The neurodegeneration of IRP2−/− animals is characterized by progressive loss of motor capabilities, for example as measured in mice by performance on hang-tests, rotarod rotating drum treadmill testing, balance beams, climbing pole tests, allelerods, footprints, decreased grooming activities and gait abnormalities in adult animals. The neurodegeneration of IRP2−/− animals progresses slowly as animals age.\n(§1) Diet: The mice were weaned 3-4 weeks after their birth. Immediately after weaning, mice were maintained on either a Tempo1-supplemented or control diet. In the Tempo1-supplemented diet, powdered Tempo1 was uniformly mixed with bacon-flavored mouse chow by a “cold press” technique (Bio-Serv, Frenchtown, N.J., USA) at a concentration of 10 mg/g of food. Bacon-flavored chow without Tempo1 was used as the control diet."}, "TfR1 [3]": {"system": "TfR1", "assay": "Western blot of TfR1 in IRP2−/− embryonic fibroblasts", "format": "cell-based, mouse", "settings": "0.3 and 1.0 mM, 16 h, with or without FAC", "experimental": "(§2) Cells: Embryonic fibroblasts of 13-day old embryos were isolated from wild type, IRP1−/− mice and IRP2−/− mice as described in LaVaute et al. supra. Myc-tagged HEK 293 Tet-on cell line, in which IRP2 expression was inducible, was prepared and cultured as described Bourdon et al., Blood Cells Mol Dis, 31, 247-255 (2003). Erythroblasts were harvested from bone marrow and purified as described in Cooperman et al., Blood, 106, 1084-1091 (2005).\n(§3) Western blotting and antibodies: Protein analysis was carried out as described in LaVaute et al., supra. Equal amounts of protein (20-40 μg/lane) were separated on 13% SDSPAGE and transferred to nitrocellulose membranes. The membrane was blocked with 5% non-fat milk, 0.1% Triton X-100 in PBS and probed at RT in the same blocking buffer. IRP1 antibody was prepared against purified hIRP1 and used at 1:5000 dilution. L-ferritin antibody was raised in rabbit from L-ferritin protein purified from mouse livers. […]\n(§4) To study the effect of Tempo1 on the IRE-binding activity of IRP1, IRP2−/− embryonic fibroblasts that were maintained in culture supplemented with 0, 0.3 and 1.0 mM Tempo1, with or without ferric ammonium citrate (FAC), for 16 h. […] Quantification was performed with the IQMac (IRP1 activity) or NIH Image (protein levels) program. Error bars represent the standard deviation calculated from the results of two different sets of experiments."}, "L-ferritin (L-Ft)": {"system": "L-ferritin (L-Ft)", "assay": "Western blot of L-ferritin in IRP2−/− embryonic fibroblasts", "format": "cell-based, mouse", "settings": "0.3 and 1.0 mM, 16 h, with or without FAC", "experimental": "as §2, §3, §4"}, "TfR1 [4]": {"system": "TfR1", "assay": "Western blot of TfR1 in brain-region lysates of IRP2−/− mice", "format": "in vivo", "settings": "lysates from cerebellum, brain-stem and forebrain of IRP2−/− mice, Tempo1 diet vs control diet", "experimental": "as §1\nTissue and lysate preparation: Animals were euthanized and tissues were frozen in liquid nitrogen immediately after harvesting, and stored at −80° C. under argon. Experiments were performed on tissues that were pulverized in liquid N2-cooled mortars in an anaerobic chamber, and then lysed in lysis buffer that was deaerated by cyclic freezethaw and air-removal with argon. […]\nLysates made from various brain regions of IRP2−/− mice that were maintained on a control diet or on a Tempo1-supplemented diet were analyzed for IRE binding activity of IRP1 and for TfR1, IRP1, and actin protein levels by gel-shift assay and Western blot. […] FIG. 3b is a quantification of the results as intensity of the bands relative to the control, represented here as 100%. Quantification was performed with the IQMac (IRP1 activity) or NIH Image (protein levels) program. Error bars represent the standard deviation calculated from the results of two different sets of animals."}}, "data": [{"smiles": "CC1(C)CC(O)CC(C)(C)N1[O]", "note": "[Tempo1]", "values": [{"measurement": "hang times", "setting": "IRP2−/− mice [1]; IRP2−/− mice on Tempo1 supplemented diet (10 mg/g of food) vs untreated knockout mice, max 60 seconds", "value": "substantially increased"}, {"measurement": "protection from progressive loss of neuromuscular capability", "setting": "IRP2−/− mice [1]; IRP2−/− mice on Tempo1 supplemented diet, hang test, FIG. 1c", "value": "significantly (p value=0.009) protected"}, {"measurement": "other signs of neurodegeneration (movement disorders, tremor, abnormalities of gait and grooming)", "setting": "IRP2−/− mice [2]", "value": "did not develop"}, {"measurement": "TfR1 levels", "setting": "TfR1 [3]", "value": "increased"}, {"measurement": "ferritin levels", "setting": "L-ferritin (L-Ft)", "value": "decreased"}, {"measurement": "TfR1 protein levels", "setting": "TfR1 [4]", "value": "markedly increased"}]}]}
